Results: patent US20210372995A1, “BIOMIMETIC PLATFORMS TO MODEL VASCULAR PATHOPHYSIOLOGY, DIAGNOSTICS, AND THERAPY” (The Johns Hopkins University, priority 2017, published 2021)

What was measured:
HAEC = conditions: 1 μM, 60-minute incubation; HAEC on well plates; cited from earlier work
fibroblasts = conditions: 100 µM; cited from earlier work
[1] = cited from earlier work
hTERT HAEC = test: NO production by hTERT HAEC in 3D scaffolds (conditioned media, Seivers NO analyzer); assay type: cell-based, human; conditions: 1 μM, 30 minutes; HAEC growing 2 months in 3D scaffolds
Experimental: Endothelial cells have many functions including the production of nitric oxide (NO). NO is a vasoactive agent important for modulating the vascular smooth muscle tone (Davidge, S. T., et al., Circ Res 1995, 77 (2), 274-83). The confluent cells growing for 2 months in the tubes were tested for NO production to determine endothelial function and viability. To qualitatively assess the NO production, 50 μL of the conditioned-media was analyzed using Seivers NO analyzer. FIGS. 13A-13C show NO production by hTERT HAEC with and without calcium ionophore stimulation. A 7- to 35-fold increase of NO was observed when HAEC growing in 3D scaffolds was stimulated with 1 μM A23187 calcium ionophore for 30 minutes. Others have reported twofold NO increase after 60-minute incubation of HAEC in 1 μM ionomycin grown on well plates (Cosentino, F., et al., Circulation 1997, 96 (1), 25-8). Using bovine coronary microvascular endothelial cells, a 3-fold increase was observed when stimulated with 1 μM A23187 calcium ionophore for 5 hours (Davidge, S. T., et al., Circ Res 1995, 77 (2), 274-83). […] There is difficulty in direct comparison of results with reported observations due to differences in methodology, analysis, and cell types. […] The higher increase in NO production warrants further investigation if 3D geometry affects HAEC NO production. […]

[2] = system: bovine coronary microvascular endothelial cells; conditions: 1 μM, 5 hours; cited from earlier work
HPASMC = test: Contractility of aligned HPASMC on microwrinkled PDMS; assay type: cell-based, human; conditions: 1 μM, 10 minutes
Experimental: HPASMC cultivated on microwrinkled PDMS were treated with angiotensin ii (1 μM) and serial phase images were taken (1, 3, 10 minutes, from left to right) to assess cell contraction. […] Scale bar=50 μm.
A 6 μm PDMS film was stretched by 20% with a uniaxial stretching system, followed by exposure to oxygen plasma (Plasma Etcher Inc.) at 80 W for 60 minutes to generate wrinkles (FIG. 1A-FIG. 1C and FIG. 16). […] To test the contractility of aligned HPASMC, HPASMC were exposed to angiotensin II (1 μM; Sigma Aldrich, St. Louis, Mo.) for 10 minutes. […] A more quantitative measurement of SMC contraction is employed as described in the Experimental Design section.

[3] = system: human coronary artery endothelial cells; conditions: 20 ng/mL; cited from earlier work

For C[C@H](CCC(=O)O)C[C@H](C)C[C@H](C)C(=O)/C=C(\O)[C@H](C)C[C@H](C)C/C=C/[C@@H](C)[C@@H](O)[C@@H](C)[C@@H](O)C[C@@H]1CC[C@@](C)([C@H]2CC[C@@](C)([C@@H](C)O)O2)O1 [ionomycin], the NO increase (HAEC) is listed as “twofold”.
In the case of COc1ccccc1Oc1c(NS(=O)(=O)c2ccc(C(C)(C)C)cc2)nc(-c2ncccn2)nc1OCCO [Bosentan], the proliferation in fibroblasts (fibroblasts) is listed as “altered” and the “smooth muscle alpha actin expression in fibroblasts” value (fibroblasts) is listed as “altered”.
In the case of CCCCC[C@H](O)/C=C/[C@@H]1[C@H]2C/C(=C/CCCC(=O)O)O[C@H]2C[C@H]1O [Prostacyclin], the half-life [1] is listed as 3 to 5 min.
For CNc1ccc2oc(C[C@H]3O[C@@]4(CC[C@H]3C)O[C@H]([C@H](C)C(=O)c3ccc[nH]3)[C@H](C)C[C@H]4C)nc2c1C(=O)O [A23187], the “increase of NO” value (hTERT HAEC) is listed as 7- to 35 fold and the NO increase [2] is listed as 3 fold.
In the case of “angiotensin II (DRVYIHPF; Angiotensin-2; UniProt P01019 25-32, looked up) [contractile agent (Sigma Aldrich)]”, the “cell contraction of aligned HPASMC” value (HPASMC) is reported as “time-dependent contraction”.
For hepatocyte growth factor, the NO increase [3] is listed as “twofold”.
